Values joined by “and” are separate entries in the source; they are usually repeats but may differ in a detail not shown here. Identical values can stand only once.
Test system: 379773-124-R-J2-PDC spheroid viability
Assay: Anticancer human tumor 379773-124-R-J2-PDC patient-derived endometrial carcinoma cell line growth inhibition [POLQ]
Conditions: spheroids with HUVEC and MSC; for viability, T/C: stronger effect = lower value; active = viability on the fitted dose curve at most 10% of control; inactive = the rest
Procedure: Multicellular complex tumor spheroid response to Polymerase (POL) inhibitors (novobiocin, ART-558, RP6685) in combination with a variety of drugs and investigational agents in selected tumor cell lines
The POL inhibitors (novobiocin, ART-558, and RP6685) were evaluated both individually and in combination with standard of care and investigational anticancer small molecules within a complex spheroid model of solid tumors. . Complex spheroids include a stromal component modeled by human endothelial cells (HUVEC) and fibroblasts modeled by human mesenchymal stem cells (MSCs). The concentration ranges selected for each drug and investigational agent were based upon clinically achievable concentrations if the clinical Cmax of the agent was known.
Compounds. The drugs and investigational agents: novobiocin (NSC847541), ART-558 (NSC835418), RP-6685 (NSC848927), peposertib (NSC802822), ceralasertib (NSC780249), elimusertib (NSC800525), camonsertib (NSC841442), AZD-1390 (NSC803789), olaparib (NSC753686), talazoparib (NSC767125), rucaparib (NSC756644), sotorasib (NSC818433), MRTX-1133 (NSC836407), SN-38 (NSC673596), topotecan (NSC609699), epotoside (NSC141540), doxorubicin (NSC123127), gemcitabine (NSC613327), 5-fluorouracil (NSC19893), paclitaxel (NSC125973), vemurafenib (NSC761431), MSA-2 (NSC828583), SN-011 (NSC837082), adavosertib (NSC754352), prexasertib (NSC758257), carboplatin (NSC241240) and oxaliplatin (NSC266046), were obtained from the National Cancer Institute (NCI) Developmental Therapeutics Program Chemical Repository (21). The FDA-approved anticancer drug set is available from the Developmental Therapeutics Program at https://dtp.cancer.gov/organization/dscb/obtaining/. […] The stock solutions were prepared in dimethyl sulfoxide (DMSO, Sigma-Aldrich, St. Louis, MO, cat. D2650), except for the platinum compounds which were prepared in saline (Quality Biological, Gaithersburg, MD, cat. 114-055-101), at 800-fold the tested concentration and stored at -70 degrees C prior to their use. All drugs and investigational agents were tested over a range starting from a high concentration at or near the clinical Cmax and decreasing in half-log increments. If the clinical Cmax for an agent had not been determined, the highest concentration tested was 10 microM, except for SN-38, which was tested at a high concentration of 1 microM.
Cell Culture. All cells were maintained in an incubator at 37 degrees C and 5% CO2 with 95% humidity. The PDC lines were cultured according to standard operating procedures established by the NCI PDMR (https://pdmr.cancer.gov). Table 3 of the manuscript, lists the cell lines along with the number of the three cell types plated to form the mct-spheroids and media for tumor cell growth. After thawing, all PDC lines, except 997537-175-T-J1-PDC and 415267-285-R-J2-PDC, were cultured in Matrigel-coated flasks prepared with a working solution of 1X Ham's F-12 nutrient mix, without supplementation (Thermo Fisher Scientific, cat. 11765054), 100 U/mL penicillin-streptomycin (Thermo Fisher Scientific, cat. 15140122), and 2.5% Matrigel (Corning Inc., Corning, NY, cat. 354248) for the first three passages. The two PDC lines 997537-175-T-J1-PDC and 415267-285-R-J2-PDC were cultured on uncoated flasks. The 857933-349-R-J2-PDC line was cultured in 6C/Colon 1B media containing advanced DMEM/F-12 (Thermo Fisher Scientific, cat. 12634028), 10 mM HEPES (Thermo Fisher Scientific, cat. 15630080), 1X GlutaMAX supplement (Thermo Fisher Scientific, cat. 35050061), 0.1 mg/mL primocin (InvivoGen, San Diego, CA, cat. ant-pm-2), 10% defined fetal bovine serum, heat inactivated (HyClone Laboratories Inc., Logan, UT, cat. SH30070.03HI), 50% L-WRN conditioned media (ATCC, cat. CRL-3276), 1.25 mM N-Acetyl-L-cysteine (Sigma-Aldrich, cat. A9165), 10 mM nicotinamide (Sigma-Aldrich, cat. N0636), 1X B-27 supplement (Thermo Fisher Scientific, cat. 17504044), 1X N-2 supplement (Thermo Fisher Scientific, cat. […]

[1] = curve of first compound, second compound 0.0316 µM
[2] = curve of first compound, second compound 0.1 µM
[3] = curve of first compound, second compound 0.316 µM
[4] = curve of first compound, second compound 1 µM
[5] = curve of first compound, second compound 3.16 µM
[6] = curve of first compound, second compound 10 µM
[7] = second compound 0.0316 µM, first compound 0.0316 µM
[8] = second compound 0.0316 µM, first compound 0.1 µM
[9] = second compound 0.0316 µM, first compound 0.316 µM
[10] = second compound 0.0316 µM, first compound 1 µM
[11] = second compound 0.0316 µM, first compound 3.16 µM
[12] = second compound 0.0316 µM, first compound 10 µM
[13] = second compound 0.1 µM, first compound 0.0316 µM
[14] = second compound 0.1 µM, first compound 0.1 µM
[15] = second compound 0.1 µM, first compound 0.316 µM
[16] = second compound 0.1 µM, first compound 1 µM
[17] = second compound 0.1 µM, first compound 3.16 µM
[18] = second compound 0.1 µM, first compound 10 µM
[19] = second compound 0.316 µM, first compound 0.0316 µM
[20] = second compound 0.316 µM, first compound 0.1 µM
[21] = second compound 0.316 µM, first compound 0.316 µM
[22] = second compound 0.316 µM, first compound 1 µM
[23] = second compound 0.316 µM, first compound 3.16 µM
[24] = second compound 0.316 µM, first compound 10 µM
[25] = second compound 1 µM, first compound 0.0316 µM
[26] = second compound 1 µM, first compound 0.1 µM
[27] = second compound 1 µM, first compound 0.316 µM
[28] = second compound 1 µM, first compound 1 µM
[29] = second compound 1 µM, first compound 3.16 µM
[30] = second compound 1 µM, first compound 10 µM
[31] = second compound 3.16 µM, first compound 0.0316 µM
[32] = second compound 3.16 µM, first compound 0.1 µM
[33] = second compound 3.16 µM, first compound 0.316 µM
[34] = second compound 3.16 µM, first compound 1 µM
[35] = second compound 3.16 µM, first compound 3.16 µM
[36] = second compound 3.16 µM, first compound 10 µM
[37] = second compound 10 µM, first compound 0.0316 µM
[38] = second compound 10 µM, first compound 0.1 µM
[39] = second compound 10 µM, first compound 0.316 µM
[40] = second compound 10 µM, first compound 1 µM
[41] = second compound 10 µM, first compound 3.16 µM
[42] = second compound 10 µM, first compound 10 µM
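Also: spheroids exposed to drugs for seven days before readout.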
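For viability, T/C in this document: percent viability relative to DMSO vehicle control taken as 100%.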

COc1cc2cc(C(=O)CCC(=O)O)sc2cc1OC + COC1C(OC(N)=O)C(O)C(Oc2ccc3c(O)c(NC(=O)c4ccc(O)c(CC=C(C)C)c4)c(=O)oc3c2C)OC1(C)C
inactive: viability, T/C [7] 85.9% | viability, T/C [8] 75.8% | viability, T/C [9] 92.1% | viability, T/C [10] 82.5% | viability, T/C [11] 78% | viability, T/C [12] 91.4% | viability, T/C [13] 88.2% | viability, T/C [14] 82% | viability, T/C [15] 90.2% | viability, T/C [16] 83.3% | viability, T/C [17] 85.5% | viability, T/C [18] 96.6% | viability, T/C [19] 96% | viability, T/C [20] 83.6% | viability, T/C [21] 76.5% | viability, T/C [22] 82.1% | viability, T/C [23] 81% | viability, T/C [24] 84.6% | viability, T/C [25] 82.7% | viability, T/C [26] 84.1% | viability, T/C [27] 90.9% | viability, T/C [28] 89% | viability, T/C [29] 90% | viability, T/C [30] 78.2% | viability, T/C [31] 99.9% | viability, T/C [32] 82.5% | viability, T/C [33] 78.1% | viability, T/C [34] 78.7% | viability, T/C [35] 90.2% | viability, T/C [36] 85.3% | viability, T/C [37] 92.8% | viability, T/C [38] 86.1% | viability, T/C [39] 86% | viability, T/C [40] 69.2% | viability, T/C [41] 86.1% | viability, T/C [42] 95.4%
> 10000 nM: IC50 [1] | IC50 [2] | IC50 [3] | IC50 [4] | IC50 [5] | IC50 [6]

CC1COCCN1c1cc(-c2ccnn2C)c2ccnc(-c3ccn[nH]3)c2n1 (stereo not given) + COC1C(OC(N)=O)C(O)C(Oc2ccc3c(O)c(NC(=O)c4ccc(O)c(CC=C(C)C)c4)c(=O)oc3c2C)OC1(C)C
104 nM: IC50 [3]
82.7 nM: IC50 [6]
76.8 nM: IC50 [1]
inactive: viability, T/C [7] 75.7% | viability, T/C [8] 42.4% | viability, T/C [9] 10.5% | viability, T/C [13] 85.5% | viability, T/C [14] 42.1% | viability, T/C [19] 82.7% | viability, T/C [20] 51.4% | viability, T/C [21] 11.2% | viability, T/C [25] 83.3% | viability, T/C [26] 38.1% | viability, T/C [31] 64.1% | viability, T/C [32] 54% | viability, T/C [33] 11.1% | viability, T/C [37] 86.9% | viability, T/C [38] 42.7% | viability, T/C [39] 10.4%
81.1 nM: IC50 [2]
73.9 nM: IC50 [4]
111 nM: IC50 [5]
active: viability, T/C [10] 9.05% | viability, T/C [11] 8.71% | viability, T/C [12] 5.49% | viability, T/C [15] 9.78% | viability, T/C [16] 8.09% | viability, T/C [17] 9.06% | viability, T/C [18] 6.55% | viability, T/C [22] 7.55% | viability, T/C [23] 8.92% | viability, T/C [24] 7.56% | viability, T/C [27] 9.64% | viability, T/C [28] 8.17% | viability, T/C [29] 9.6% | viability, T/C [30] 5.36% | viability, T/C [34] 7.3% | viability, T/C [35] 8.49% | viability, T/C [36] 6.71% | viability, T/C [40] 7.51% | viability, T/C [41] 9.13% | viability, T/C [42] 5.64%

O=c1[nH]cc(F)c(=O)[nH]1
inactive: viability, T/C (compound 0.0316 µM) 99.4% and 89.8% and 84.2% | viability, T/C (compound 0.1 µM) 81.4% and 94.1% and 74.5% | viability, T/C (compound 0.316 µM) 87.7% and 83.8% and 83.7% | viability, T/C (compound 1 µM) 93.3% and 88.7% and 90.6% | viability, T/C (compound 3.16 µM) 80.8% (2×) and 87.2% | viability, T/C (compound 10 µM) 54.3% and 51.3% and 50.9%
> 10000 nM: IC50 (curve of compound)

CC1COCCN1c1cc(C2(S(C)(=N)=O)CC2)nc(-c2ccnc3[nH]ccc23)n1 (stereo not given)
inactive: viability, T/C (compound 0.0316 µM) 78.3% and 87.6% and 81.5% | viability, T/C (compound 0.1 µM) 69.2% and 89.3% and 88.1% | viability, T/C (compound 0.316 µM) 71.7% and 86.7% and 72.9% | viability, T/C (compound 1 µM) 80.9% and 82.7% and 76.1% | viability, T/C (compound 3.16 µM) 34.5% and 44.9% and 28.5%
2040 nM and 2710 nM and 1870 nM: IC50 (curve of compound)
5.53% and 11.9% and 6.3%: viability, T/C (compound 10 µM)

C#Cc1c(F)ccc2cc(O)cc(-c3ncc4c(N5CC6CCC(C5)N6)nc(OCC56CCCN5CC(F)C6)nc4c3F)c12 (stereo not given) + COC1C(OC(N)=O)C(O)C(Oc2ccc3c(O)c(NC(=O)c4ccc(O)c(CC=C(C)C)c4)c(=O)oc3c2C)OC1(C)C
> 10000 nM: IC50 [1] | IC50 [2] | IC50 [3] | IC50 [4] | IC50 [5] | IC50 [6]
inactive: viability, T/C [7] 89% | viability, T/C [8] 85.8% | viability, T/C [9] 84.4% | viability, T/C [10] 81% | viability, T/C [11] 97.9% | viability, T/C [12] 88.6% | viability, T/C [13] 95.8% | viability, T/C [14] 78.2% | viability, T/C [15] 92.1% | viability, T/C [16] 75.5% | viability, T/C [17] 77.4% | viability, T/C [18] 95% | viability, T/C [19] 91% | viability, T/C [20] 83.9% | viability, T/C [21] 79.7% | viability, T/C [22] 84.5% | viability, T/C [23] 87.6% | viability, T/C [24] 93.4% | viability, T/C [25] 80.8% | viability, T/C [26] 84.3% | viability, T/C [27] 89.9% | viability, T/C [28] 86.8% | viability, T/C [29] 75% | viability, T/C [30] 93.9% | viability, T/C [31] 78.5% | viability, T/C [32] 81.7% | viability, T/C [33] 90.2% | viability, T/C [34] 78.5% | viability, T/C [35] 89.7% | viability, T/C [36] 96.8% | viability, T/C [37] 75.3% | viability, T/C [38] 85.8% | viability, T/C [39] 103% | viability, T/C [40] 79.4% | viability, T/C [41] 75.8% | viability, T/C [42] 106%

COC1C(OC(N)=O)C(O)C(Oc2ccc3c(O)c(NC(=O)c4ccc(O)c(CC=C(C)C)c4)c(=O)oc3c2C)OC1(C)C (stereo not given)
> 10000 nM: IC50 (compound alone, run of 10/31/2023)
inactive: viability, T/C (compound 0.0316 µM) 83.6% [middle of 13 runs] | viability, T/C (compound 0.316 µM) 88.3% [middle of 13 runs] | viability, T/C (compound 3.16 µM) 89.8% [middle of 13 runs] | viability, T/C (compound 10 µM) 81.1% [middle of 13 runs]

Source: PubChem BioAssay AID1963848 (Molecular Pharmacology Branch, DTP, NCI, 2024)
